In this assay the target is T1, L-glutaminase present in mice brain homogenate (Glutaminase(Brain)) (Mus musculus, UniProt D3Z7P3).
T1 sequence (D3Z7P3 55-674): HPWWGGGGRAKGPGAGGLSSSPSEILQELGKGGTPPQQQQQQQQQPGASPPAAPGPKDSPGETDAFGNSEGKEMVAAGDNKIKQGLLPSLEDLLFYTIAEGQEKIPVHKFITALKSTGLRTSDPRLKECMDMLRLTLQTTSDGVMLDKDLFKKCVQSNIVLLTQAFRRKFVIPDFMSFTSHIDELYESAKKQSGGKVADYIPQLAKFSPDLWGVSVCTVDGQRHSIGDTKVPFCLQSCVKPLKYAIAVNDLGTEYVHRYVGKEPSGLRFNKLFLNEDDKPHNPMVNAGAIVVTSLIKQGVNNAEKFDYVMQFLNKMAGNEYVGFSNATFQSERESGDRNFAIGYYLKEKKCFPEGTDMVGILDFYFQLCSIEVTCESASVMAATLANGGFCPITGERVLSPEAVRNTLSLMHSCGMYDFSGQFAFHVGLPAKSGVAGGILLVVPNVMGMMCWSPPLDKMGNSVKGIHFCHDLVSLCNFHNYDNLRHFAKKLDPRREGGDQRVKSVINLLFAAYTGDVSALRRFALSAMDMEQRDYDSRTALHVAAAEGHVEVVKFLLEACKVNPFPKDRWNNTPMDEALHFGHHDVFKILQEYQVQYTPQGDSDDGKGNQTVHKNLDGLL
As to the kind of experiment: Glutaminase enzyme activity using glutaminase enzyme from mice brain/kidney homogenate (Nessler's reagent, ammonia). The assay is classed as biochemical. The settings on record: for inhibition at 0.1 µM: read-out: Glutaminase(Brain) activity % inhibition 0.1 μM; for inhibition at 1 µM: read-out: Glutaminase(Brain) activity % inhibition @1 μM. The protocol: Assay 3: Determination of Glutaminase Enzyme Activity Using Glutaminase
Enzyme from Mice Brain/Kidney
Step 1: Preparation of Tissue Homogenates: Male Balb/c mice were administered 0.28 M ammonium chloride in drinking water for 7 days. The animals were sacrificed and brain/kidney organs collected on dry ice. […] The tissue was homogenized and supernatants were stored at −80° C. until the enzyme assay was performed.
Aim: Compounds were assessed for their ability to inhibit the enzymatic activity of L-glutaminase present in mice brain/kidney homogenate.
Protocol: The assay was performed using a colorimetric method using Nessler's Reagent by quantifying the amount of ammonia formed as a by product during the enzymatic conversion of L-glutamine to glutamate. In the routine assay, 16 μl of tissue homogenate is added to 33 μl of Tris-Hcl phosphate buffer (pH 8) along with 1 μl of DMSO/test compound containing the desired final concentration and vortexed briefly. 50 μl of 20 mM L-glutamine Tris buffer is added to start the reaction and incubated for 15 minutes at 37° C. The ammonia formed is detected by adding 20 μl of reaction mixture to cold water in a 96 well plate followed by 20 μl of Nessler's reagent. The colour developed is measured at 450 nm. Data Analysis: Activity of the test compound is reported as % inhibition and the data is analyzed using Graphpad Prism (Graphpad software; San Diego Calif.) for IC50 determination.

Structures can show the parent of a compound that is named as a salt. Where two headings read alike, the source gives them in different places.

As a reminder, the inhibition is the share of the control response that was lost under treatment. Consider `CS(=O)(=O)c1ccc(CC(=O)Nc2nnc(CCCCc3ccc(NC(=O)Cc4cccnc4)nc3)s2)cc1` [Example-14, 2-(4-(Methylsulfonyl)phenyl)-N-(5-(4-(6-(2-(pyridin-3-yl)acetamido)pyridin-3-yl)butyl)-1,3,4-thiadiazol-2-yl)acetamide], for which, under “0.1 μM, mice brain homogenate”, the inhibition at 0.1 µM lay within 75 to 100%. Also, the inhibition at 1 µM (1 μM, mice brain homogenate) was 75 to 100%.

`O=C(Cc1cccc(OC(F)(F)F)c1)Nc1ncc(CCCCc2nnc(NC(=O)Cc3ccccn3)s2)cn1` [Example-7, 2-(Pyridin-2-yl)-N-(5-(4-(2-(2-(3-(trifluoromethoxy)phenyl)acetamido)pyrimidin-5-yl)butyl)-1,3,4-thiadiazol-2-yl)acetamide]: the inhibition at 0.1 µM (0.1 μM, mice brain homogenate) was below 25%. Further, for the setting “1 μM, mice brain homogenate”, the inhibition at 1 µM lay in the range of 25 to 50%.

On to `O=C(Cc1cccc(OC(F)(F)F)c1)Nc1cnc(CCCCc2nnc(NC(=O)Cc3ccccn3)s2)cn1` [Example-6, 2-(Pyridin-2-yl)-N-(5-(4-(5-(2-(3-(trifluoromethoxy)phenyl)acetamido)pyrazin-2-yl)butyl)-1,3,4-thiadiazol-2-yl)acetamide], for which the inhibition at 0.1 µM was below 25% and the inhibition at 1 µM is 25 to 50%.

Turning to `O=C(Cc1cccc(OC(F)(F)F)c1)Nc1ccc(CCCCc2nnc(NC(=O)Cn3nc(C(F)(F)F)cc3C(F)(F)F)s2)cn1` [Example-35, 2-(3,5-Bis(trifluoromethyl)-1H-pyrazol-1-yl)-N-(5-(4-(6-(2-(3-(trifluoromethoxy)phenyl)acetamido)pyridin-3-yl)butyl)-1,3,4-thiadiazol-2-yl)acetamide], the inhibition at 0.1 µM (0.1 μM, mice brain homogenate) was below 25%. For the same compound, where the note is “1 μM, mice brain homogenate”, the inhibition at 1 µM is below 25%.

In the case of `CS(=O)(=O)Nc1cccc(CC(=O)Nc2nnc(CCCCc3ccc(NC(=O)Cc4cccc(OC(F)(F)F)c4)nc3F)s2)c1` [Example-39, N-(6-Fluoro-5-(4-(5-(2-(3-(methylsulfonamido)phenyl)acetamido)-1,3,4-thiadiazol-2-yl)butyl)pyridin-2-yl)-2-(3-(trifluoromethoxy)phenyl)acetamide], the inhibition at 0.1 µM (0.1 μM, mice brain homogenate) was in the range of 25 to 50%. Also, the inhibition at 1 µM (1 μM, mice brain homogenate) was in the range of 75 to 100%.

As to `O=C(Cc1cccnc1)Nc1ccc(CCCCc2nnc(NC(=O)Cc3ccccc3F)s2)cn1` [Example-19, 2-(2-Fluorophenyl)-N-(5-(4-(6-(2-(pyridin-3-yl)acetamido)pyridin-3-yl)butyl)-1,3,4-thiadiazol-2-yl)acetamide], under “0.1 μM, mice brain homogenate”, the inhibition at 0.1 µM fell in the range of 50 to 75%. Under “1 μM, mice brain homogenate”, the inhibition at 1 µM was 75 to 100%.

In the case of `CS(=O)(=O)c1cccc(CC(=O)Nc2nnc(CCCCc3ccc(NC(=O)Cc4cccnc4)nc3)s2)c1` [Example-13, 2-(3-(Methylsulfonyl)phenyl)-N-(5-(4-(6-(2-(pyridin-3-yl)acetamido)pyridin-3-yl)butyl)-1,3,4-thiadiazol-2-yl)acetamide], the inhibition at 0.1 µM (0.1 μM, mice brain homogenate) was in the range of 75 to 100%. Also, the inhibition at 1 µM (1 μM, mice brain homogenate) lay in the range of 75 to 100%.

For the compound `O=C(Cc1cccnc1)Nc1ccc(CCCCc2nnc(NC(=O)Cc3cccnc3)s2)cn1` [Example-15, 2-(Pyridin-3-yl)-N-(5-(4-(5-(2-(pyridin-3-yl)acetamido)-1,3,4-thiadiazol-2-yl)butyl)pyridin-2-yl)acetamide], the inhibition at 0.1 µM (0.1 μM, mice brain homogenate) is 50 to 75%. In addition, the inhibition at 1 µM (1 μM, mice brain homogenate) was in the range of 75 to 100%.

Take `COc1ccccc1CC(=O)Nc1nnc(CCC#Cc2ccc(NC(=O)Cc3ccccc3Cl)nc2)s1` [Example 1, 2-(2-Chlorophenyl)-N-{5-[4-(5-(2-(2-methoxyphenyl)acetamido)-1,3,4-thiadiazol-2-yl)but-1-ynyl]pyridin-2-yl}acetamide]: the inhibition at 0.1 µM (0.1 μM, mice brain homogenate) fell in the range of 25 to 50%. For the same compound, the inhibition at 1 µM (1 μM, mice brain homogenate) fell in the range of 75 to 100%.

Consider `COc1ccccc1CC(=O)Nc1nnc(CCCCc2ccc(NC(=O)Cc3ccccc3Cl)nc2)s1` [Example 2, 2-(2-Chlorophenyl)-N-{5-[4-(5-(2-(2-methoxyphenyl)acetamido)-1,3,4-thiadiazol-2-yl)butyl]pyridin-2-yl}acetamide], for which the inhibition at 0.1 µM (0.1 μM, mice brain homogenate) fell in the range of 50 to 75%. The inhibition at 1 µM (1 μM, mice brain homogenate) lay within 75 to 100%.

As to `O=C(Cc1ccccc1Cl)Nc1ccc(CCCCc2nnc(NC(=O)Cc3ccccn3)s2)cn1` [Example-25, 2-(2-Chlorophenyl)-N-(5-(4-(5-(2-(pyridin-2-yl)acetamido)-1,3,4-thiadiazol-2-yl)butyl)pyridin-2-yl)acetamide], the inhibition at 0.1 µM (0.1 μM, mice brain homogenate) was below 25%. Also, for the setting “1 μM, mice brain homogenate”, the inhibition at 1 µM was 50 to 75%.

For the compound `CC(C)(C)OC(=O)N1CCC(c2ccc(CC(=O)Nc3nnc(CCCCc4ccc(NC(=O)Cc5cccc(OC(F)(F)F)c5)nc4)s3)cc2)CC1` [Example-33, Tert-butyl 4-(4-(2-oxo-2-(5-(4-(6-(2-(3-(trifluoromethoxy)phenyl)acetamido)pyridin-3-yl)butyl)-1,3,4-thiadiazol-2-ylamino)ethyl)phenyl)piperidine-1-carboxylate], for the setting “0.1 μM, mice brain homogenate”, the inhibition at 0.1 µM is below 25%. Where the note is “1 μM, mice brain homogenate”, the inhibition at 1 µM fell in the range of 25 to 50%.

Consider `O=C(Cc1cccnc1)Nc1ccc(CCCCc2nnc(NC(=O)Cc3ccccc3Cl)s2)cn1` [Example-12, 2-(2-Chlorophenyl)-N-(5-(4-(6-(2-(pyridin-3-yl)acetamido)pyridin-3-yl)butyl)-1,3,4-thiadiazol-2-yl) acetamide], for which the inhibition at 0.1 µM (0.1 μM, mice brain homogenate) lay in the range of 75 to 100%. In addition, the inhibition at 1 µM (1 μM, mice brain homogenate) is 75 to 100%.

As for `O=C(Cc1cccc(OC(F)(F)F)c1)Nc1ccc(CCCCc2nnc(NC(=O)Cc3ccccn3)s2)nc1` [Example-4, 2-(Pyridin-2-yl)-N-(5-(4-(5-(2-(3-(trifluoromethoxy)phenyl)acetamido)pyridin-2-yl)butyl)-1,3,4-thiadiazol-2-yl)acetamide], the inhibition at 0.1 µM (0.1 μM, mice brain homogenate) is below 25%.

Take `O=C(Cc1cccc(OC(F)(F)F)c1)Nc1ccc(CC2CC(c3nnc(NC(=O)Cc4ccccn4)s3)C2)nn1` (stereo not drawn) [Example-110, 2-(Pyridin-2-yl)-N-(5-(3-((6-(2-(3-(trifluoromethoxy)phenyl)acetamido)pyridazin-3-yl)methyl)cyclobutyl)-1,3,4-thiadiazol-2-yl)acetamide]: the inhibition at 0.1 µM lay in the range of 75 to 100% and the inhibition at 1 µM was 75 to 100%.

Consider `O=C(Cc1cccc(OC(F)(F)F)c1)Nc1ccc(CCCCc2nnc(NC(=O)Cc3cccc(C4CCNCC4)c3)s2)cn1` [Example-36, 2-(3-(Piperidin-4-yl)phenyl)-N-(5-(4-(6-(2-(3-(trifluoromethoxy)phenyl)acetamido)pyridin-3-yl)butyl)-1,3,4-thiadiazol-2-yl)acetamide hydrochloride], for which the inhibition at 0.1 µM was in the range of 25 to 50% and the inhibition at 1 µM was 25 to 50%.

Regarding `O=C(Cc1cccc(OC(F)(F)F)c1)Nc1ccc(CCCCc2nnc(NC(=O)Cc3ccc(C4CCNCC4)cc3)s2)cn1` [Example-34, 2-(4-(Piperidin-4-yl)phenyl)-N-(5-(4-(6-(2-(3-(trifluoromethoxy)phenyl)acetamido)pyridin-3-yl)butyl)-1,3,4-thiadiazol-2-yl)acetamide hydrochloride], the inhibition at 0.1 µM was below 25% and the inhibition at 1 µM fell in the range of 25 to 50%.

`O=C(Cc1ccccn1)Nc1nnc(CC2CCC(Cc3nnc(NC(=O)Cc4ccccn4)s3)CC2)s1` (stereo not drawn) [Example-106, N,N′-(5, 5′-(Cyclohexane-1,4-diylbis(methylene))bis(1,3,4-thiadiazole-5,2-diyl))bis(2-(pyridin-2-yl)acetamide)]: the inhibition at 0.1 µM (0.1 μM, mice brain homogenate) was below 25%. Where the note is “1 μM, mice brain homogenate”, the inhibition at 1 µM fell in the range of 25 to 50%.

With `O=C(Cc1ccccc1Cl)Nc1ccc(CCCCc2nnc(NC(=O)Cc3cccnc3)s2)cn1` [Example-26, 2-(2-Chlorophenyl)-N-(5-(4-(5-(2-(pyridin-3-yl)acetamido)-1,3,4-thiadiazol-2-yl)butyl)pyridin-2-yl)acetamide], the inhibition at 0.1 µM (0.1 μM, mice brain homogenate) fell in the range of 50 to 75%. The inhibition at 1 µM (1 μM, mice brain homogenate) fell in the range of 75 to 100%.

Consider `O=C(Cc1cccc(OC(F)(F)F)c1)Nc1ccc(CCCCc2nnc(NC(=O)Cc3cccnc3)s2)nc1` [Example-5, 2-(Pyridin-3-yl)-N-(5-(4-(5-(2-(3-(trifluoromethoxy)phenyl)acetamido)pyridin-2-yl)butyl)-1,3,4-thiadiazol-2-yl)acetamide], for which the inhibition at 0.1 µM (0.1 μM, mice brain homogenate) was below 25%. Further, for the setting “1 μM, mice brain homogenate”, the inhibition at 1 µM was below 25%.

The values above are taken from patent publication US20160297761A1, “NOVEL INHIBITORS OF GLUTAMINASE” (RHIZEN PHARMACEUTICALS SA, priority 2014, published 2016).
